Structures can show the parent of a compound that is named as a salt.

We go through 28 compounds from patent US7799819B2, “7-Amido-isoindolyl compounds and their pharmaceutical uses” (Celgene Corporation, priority 2003, dated 2010).

`CCOc1cc([C@@H](CC(=O)NOC(=O)C(C)(C)C)N2Cc3cccc(NC(=O)C4CC4)c3C2=O)ccc1OC` [Example 26, (1R)-Cyclopropanecarboxylic acid {2-[2-(2,2-dimethyl-propionyloxycarbamoyl)-1-(3-ethoxy-4-methoxy-phenyl)-ethyl]-3-oxo-2,3-dihydro-1H-isoindol-4-yl}-amide]: the melting point lay within 146 to 148 °C.
Then `CCOc1cc(C(CCN(OC(=O)OC(C)(C)C)C(=O)OC(C)(C)C)N2Cc3cccc(NC(=O)C4CC4)c3C2=O)ccc1OC` [Example 2, (3R)-(tert-Butoxy)-N-{3-[7-(cyclopropylcarbonylamino)-1-oxoisoindolin-2-yl]-3-(3-ethoxy-4-methoxyphenyl)propyl}carbonylamino(tert-butoxy)formate], with 153 to 155 °C; and `CCOc1cc([C@@H](CC(=O)NO)N2Cc3cccc(NC(=O)C4CC4)c3C2=O)ccc1OC` [Example 9, (1R)-Cyclopropanecarboxylic acid {2-[1-(3-ethoxy-4-methoxy-phenyl)-2-hydroxycarbamoyl-ethyl]-3-oxo-2,3-dihydro-1H-isoindol-4-yl}-amide], with 160 to 162 °C.
In turn, `CCOc1cc([C@@H](CC(=O)NOC(C)=O)N2Cc3c(Cl)ccc(NC(=O)C4CC4)c3C2=O)ccc1OC` [Example 17, (1R)-Cyclopropanecarboxylic acid {2-[2-acetoxycarbamoyl-1-(3-ethoxy-4-methoxy-phenyl)-ethyl]-7-chloro-3-oxo-2,3-dihydro-1H-isoindol-4-yl}-amide] came in with a melting point of 139 to 141 °C.
The value for `CCOc1cc([C@@H](CC(=O)NOC(C)=O)N2Cc3cccc(NC(=O)C4CC4)c3C2=O)ccc1OC` [Example 10, (1R)-Cyclopropanecarboxylic acid {2-[2-acetoxycarbamoyl-1-(3-ethoxy-4-methoxy-phenyl)-ethyl]-3-oxo-2,3-dihydro-1H-isoindol-4-yl}-amide] was 140 to 142 °C; that for `CCOc1cc([C@@H](CC(=O)OC)N2Cc3c(Cl)ccc(NC(=O)C4CC4)c3C2=O)ccc1OC` [Example 13, (3R)-3-[4-Chloro-7-(cyclopropanecarbonyl-amino)-1-oxo-1,3-dihydro-isoindol-2-yl]-3-(3-ethoxy-4-methoxy-phenyl)-propionic acid methyl ester] was 158 to 160 °C.
Then `CCOc1cc([C@@H](CCO)N2Cc3cccc(NC(=O)C4CC4)c3C2=O)ccc1OC` [Example 1, (1R)-Cyclopropanecarboxylic acid {2-[1-(3-ethoxy-4-methoxy-phenyl)-3-hydroxy-propyl]-3-oxo-2,3-dihydro-1H-isoindol-4-yl}-amide], with 103 to 105 °C; and `CCOc1cc(C(CC)N2Cc3cccc(NC(=O)C4CC4)c3C2=O)ccc1OC` (stereo not shown) [Example 20, Cyclopropanecarboxylic acid {2-[1-(3-ethoxy-4-methoxy-phenyl)-propyl]-3-oxo-2,3-dihydro-1H-isoindol-4-yl}-amide], with 107 to 109 °C; and `CCOc1cc([C@@H](CC(C)(C)O)N2Cc3cccc(NC(=O)C4CC4)c3C2=O)ccc1OC` [Example 23, (1R)-Cyclopropanecarboxylic acid {2-[1-(3-ethoxy-4-methoxy-phenyl)-3-hydroxy-3-methyl-butyl]-3-oxo-2,3-dihydro-1H-isoindol-4-yl}-amide], with 90 to 92 °C.
The value for `CCOc1cc([C@@H](CS(C)(=O)=O)N2Cc3c(Cl)ccc(NC(=O)C4CC4)c3C2=O)ccc1OC` [Example 18, (1S)-Cyclopropanecarboxylic acid {7-chloro-2-[1-(3-ethoxy-4-methoxy-phenyl)-2-methanesulfonyl-ethyl]-3-oxo-2,3-dihydro-1H-isoindol-4-yl}-amide] was 197 to 199 °C.
`CCOc1cc([C@@H](CC(=O)N(C)C)N2Cc3c(Cl)ccc(NC(=O)C4CC4)c3C2=O)ccc1OC` [Example 15, (1R)-Cyclopropanecarboxylic acid {7-chloro-2-[2-dimethylcarbamoyl-1-(3-ethoxy-4-methoxy-phenyl)-ethyl]-3-oxo-2,3-dihydro-1H-isoindol-4-yl}-amide] yielded a melting point of 163 to 165 °C.
Then `CCOc1cc([C@@H](CCNO)N2Cc3cccc(NC(=O)C4CC4)c3C2=O)ccc1OC` [Example 3, (1R)-Cyclopropanecarboxylic acid {2-[1-(3-ethoxy-4-methoxy-phenyl)-3-hydroxyamino-propyl]-3-oxo-2,3-dihydro-1H-isoindol-4-yl}-amide], with 136 to 138 °C; and `CCOc1cc([C@@H](CCNS(C)(=O)=O)N2Cc3cccc(NC(=O)C4CC4)c3C2=O)ccc1OC` [Example 4, (1R)-Cyclopropanecarboxylic acid {2-[1-(3-ethoxy-4-methoxy-phenyl)-3-methanesulfonylamino-propyl]-3-oxo-2,3-dihydro-1H-isoindol-4-yl}-amide], with 93 to 95 °C.
The value for `CCOc1cc([C@@H](CCN)N2Cc3cccc(NC(=O)C4CC4)c3C2=O)ccc1OC` (as salt: salt) [Example 5, (1R)-Cyclopropanecarboxylic acid {2-[3-amino-1-(3-ethoxy-4-methoxy-phenyl)-propyl]-3-oxo-2,3-dihydro-1H-isoindol-4-yl}-amide] was 169 to 171 °C.
The value for `CCOc1cc([C@@H](CC(=O)NOC(=O)C2CC2)N2Cc3cccc(NC(=O)C4CC4)c3C2=O)ccc1OC` [Example 24, (1R)-Cyclopropanecarboxylic acid {2-[2-cyclopropanecarbonyloxycarbamoyl-1-(3-ethoxy-4-methoxy-phenyl)-ethyl]-3-oxo-2,3-dihydro-1H-isoindol-4-yl}-amide] was 130 to 132 °C.
`CCOc1cc([C@@H](CC(=O)NOC(=O)CC(C)(C)C)N2Cc3cccc(NC(=O)C4CC4)c3C2=O)ccc1OC` [Example 27, (1R)-Cyclopropanecarboxylic acid {2-[2-(3,3-dimethyl-butyryloxycarbamoyl)-1-(3-ethoxy-4-methoxy-phenyl)-ethyl]-3-oxo-2,3-dihydro-1H-isoindol-4-yl}-amide] gave a melting point of 118 to 120 °C.
The value for `CCOc1cc([C@@H](CCNC(N)=O)N2Cc3cccc(NC(=O)C4CC4)c3C2=O)ccc1OC` [Example 6, (1R)-Cyclopropanecarboxylic acid {2-[1-(3-ethoxy-4-methoxy-phenyl)-3-ureido-propyl]-3-oxo-2,3-dihydro-1H-isoindol-4-yl}-amide] was 162 to 164 °C; that for `CCOc1cc([C@@H](CCN(C)C)N2Cc3cccc(NC(=O)C4CC4)c3C2=O)ccc1OC.Cl` was 119 to 121 °C; that for `CCOc1cc([C@@H](CC[S+](C)[O-])N2Cc3cccc(NC(=O)C4CC4)c3C2=O)ccc1OC` (stereo partly drawn) [Example 11, (3R)-Cyclopropanecarboxylic acid {2-[1-(3-ethoxy-4-methoxy-phenyl)-3-methanesulfinyl-propyl]-3-oxo-2,3-dihydro-1H-isoindol-4-yl}-amide] was 122 to 125 °C.
With `CCOc1cc([C@@H](CS(C)(=O)=O)N2Cc3c(F)ccc(NC(=O)C4CC4)c3C2=O)ccc1OC` [Example 28, (1S)-Cyclopropanecarboxylic acid {2-[1-(3-ethoxy-4-methoxy-phenyl)-2-methanesulfonyl-ethyl]-7-fluoro-3-oxo-2,3-dihydro-1H-isoindol-4-yl}-amide], the melting point was in the range of 176 to 178 °C.
The value for `CCOc1cc([C@@H](CC(N)=O)N2Cc3c(Cl)ccc(NC(=O)C4CC4)c3C2=O)ccc1OC` [Example 14, (1R)-Cyclopropanecarboxylic acid {2-[2-carbamoyl-1-(3-ethoxy-4-methoxy-phenyl)-ethyl]-7-chloro-3-oxo-2,3-dihydro-1H-isoindol-4-yl}-amide] was 201 to 203 °C; that for `CCOc1cc([C@@H](CC(=O)O)N2Cc3c(Cl)ccc(NC(=O)C4CC4)c3C2=O)ccc1OC` [Example 12, (3R)-3-[4-Chloro-7-(cyclopropanecarbonyl-amino)-1-oxo-1,3-dihydro-isoindol-2-yl]-3-(3-ethoxy-4-methoxy-phenyl)-propionic acid] was 118 to 120 °C; that for `CCOc1cc(C(Cc2c(Cl)cncc2Cl)N2Cc3cccc(NC(=O)C4CC4)c3C2=O)ccc1OC` (stereo not shown) [Example 22, Cyclopropanecarboxylic acid {2-[2-(3,5-dichloro-pyridin-4-yl)-1-(3-ethoxy-4-methoxy-phenyl)-ethyl]-3-oxo-2,3-dihydro-1H-isoindol-4-yl}-amide] was 159 to 161 °C.
On to `CCOc1cc(C(CC#N)N2Cc3c(Cl)ccc(NC(=O)C4CC4)c3C2=O)ccc1OC` (stereo not shown) [Example 21, Cyclopropanecarboxylic acid {7-chloro-2-[2-cyano-1-(3-ethoxy-4-methoxy-phenyl)-ethyl]-3-oxo-2,3-dihydro-1H-isoindol-4-yl}-amide], for which the melting point lay within 200 to 202 °C.
The value for `CCOc1cc([C@@H](CS(C)(=O)=O)N2Cc3c(Cl)ccc(NC(=O)N(C)C)c3C2=O)ccc1OC` [Example 29, (1S)-3-{7-Chloro-2-[1-(3-ethoxy-4-methoxy-phenyl)-2-methanesulfonyl-ethyl]-3-oxo-2,3-dihydro-1H-isoindol-4-yl}-1,1-dimethyl-urea] was 205 to 207 °C.
As to `CCOc1cc([C@@H](CS(C)(=O)=O)N2Cc3c(Cl)ccc(NC(=O)CN4CCN(C)CC4)c3C2=O)ccc1OC` [Example 30, (1S)—N-{7-Chloro-2-[1-(3-ethoxy-4-methoxy-phenyl)-2-methanesulfonyl-ethyl]-3-oxo-2,3-dihydro-1H-isoindol-4-yl}-2-(4-methyl-piperazin-1-yl)-acetamide], the melting point is 205 to 207 °C.
`CCOc1cc([C@@H](CC(=O)NOC(=O)C(C)C)N2Cc3cccc(NC(=O)C4CC4)c3C2=O)ccc1OC` [Example 25, (1R)-Cyclopropanecarboxylic acid {2-[1-(3-ethoxy-4-methoxy-phenyl)-2-isobutyryloxycarbamoyl-ethyl]-3-oxo-2,3-dihydro-1H-isoindol-4-yl}-amide] displayed a melting point of 107 to 109 °C.
The value for `CCOc1cc([C@@H](CS(C)(=O)=O)N2Cc3c(Br)ccc(NC(=O)C4CC4)c3C2=O)ccc1OC` [Example 19, (1S)-Cyclopropanecarboxylic acid {7-bromo-2-[1-(3-ethoxy-4-methoxy-phenyl)-2-methanesulfonyl-ethyl]-3-oxo-2,3-dihydro-1H-isoindol-4-yl}-amide] was 219 to 221 °C.
